Results reported in patent US6740680B1, “Pharmaceutical compositions to tetrac and methods of use thereof” (Becton Pharma, Inc., priority 1999, dated 2004).
Like-named read-outs stand apart in the source and are kept apart here.

Key:
Cynomologus monkeys = system: Cynomologus monkeys
Description: Preparation of Tetrac for injection. Tetrac from Rhône-Poulenc and Henning Laboratory were compared. Tetrac powder was dissolved in sterile 0.1 N NaOH at 2 mg/ml. This solution was made before the beginning of each treatment period and stored at 4° C. in polypropylene tubes, protected from light. Each solution for injection was prepared daily after dilution in the vehicle (0.9% NaCl) containing 5% monkey serum (v/v), and was stored at room temperature and protected from light, according to the storage conditions of the test substance.
Animals. One male and one female purpose bred Cynomologus monkeys Macaca fascicularis were supplied by Centre de Recherches Primatologiques, Port Louis, Mauritius. […] The animals were individually housed in stainless steel cages and a metallic tray was placed under each cage in order to collect urine. The animals were fed daily with approximately 200 grams each of U.A.R. 107 C pelleted diet (batch Nos. 61106, 61207 and 70317, U.A.R., Villemoisson-sur-Orge, France), distributed about 2 hours after treatment with Tetrac. No contaminants were known to have been present in the diet, drinking water or bedding material at levels which may be expected to have interfered with or prejudiced the outcome of the study.
Weeks 1 to 3 and weeks 7 to 9: the animals received the test substance TETRAC provided either by Rhone-Poulenc or by Henning Laboratories over a three-week period.
Weeks 4 to 6 and weeks 10 to 12: a washout period of three weeks was observed.
Administration of Tetrac. Tetrac was administered via intramuscular injection into the thigh muscle once a day, at approximately the same time each day, several days a week over a three week period. The quantity of tetrac administered to each animal was adjusted according to the most recently recorded body weight. A constant dosage-volume of 0.5 ml/kg was used.
Morbidity and mortality. The animals were checked at least twice a day, for mortality and signs of morbidity.
Body weight. Body weight was recorded for each animal once before the beginning of the treatment period, on the first day of the treatment period, and at least once a week until the end of the study.
Food consumption. Food consumption was estimated for each animal by calculating the difference between the quantity given and that remaining the next morning. This was estimated daily during the week before treatment and throughout the study. Food consumption was expressed as a percentage of the quantity given. Whenever fasting was required, the food was removed at the end of the day and the estimation of consumption was made at that time, food being made available for approximately five hours on that day.

α-MHC mRNA = experiment: Northern blot, α-MHC mRNA in heart; type: in vivo, rat
Description: (§1) Seventy-nine male SIVZ rats were purchased from the breeder (Institut für Labortierkunde des Universität Zürich, Zürich, Switzerland). They were rendered hypothyroid by a single injection of [^131I]Na (100 μCi/rat) and before and throughout the experiment 0.02% 2-mercapto-1-methylimidazol (MMI) was added to drinking water. In order to have an euthyroid control group of similar weight and identical age, 10 rats received only MMI in the drinking water and 2 weeks before implanting the minipumps, MMI was withdrawn. Osmotic minipumps (secretion rate 0.25 μl/hour, duration 14 days) were implanted intraperitoneally (i.p.) 2 months after the injection of [^131I]Na. The minipumps were filled with T4 or Tetrac dissolved in 0.05 N NaOH, 2% BSA and 100,000 cpm [^125I]T4 or [^125I]Tetrac as control of their secretion rates. The infusion lasted 13 days. 0, 1.5, 4.5, 13.5 and 40.5 nmol Tetrac/day/100 g or 0.5, 1.5, 4.5 and 13.5 nmol T4/day/100 g bodyweight (BW) (n=4/dose) were infused. An euthyroid control group was included. The animals were weighed every 2 days. Rats were sacrificed by decapitation and blood was collected and stored at […] until use. Tissues (liver, heart, brown adipose tissue, cerebral cortex and pituitary) were removed rapidly, frozen in liquid nitrogen and stored at […] until use.
(§2) Total RNA extraction and Northern Blot hybridization Total RNA was extracted with the method of Chomczynski and Sacchi (Chomczynski, P. and Sacchi, N. Anal. Biochem. (1987) 162: 156-159). […]
(§3) The amount of labeled mRNA was quantified by scanning laser densitometry (Phosphorimager, Molecular Dynamics; Sunnyvale, USA). Variations in RNA loading and membrane transfer were corrected by densitometric quantification of a negative photograph of 28S and 18S ribosomal RNA bands from ethidium bromide stained RNA gels. […]

GH mRNA = experiment: Northern blot, growth hormone mRNA in pituitary; type: in vivo, rat; details: infused rats, adjusted group mean at the mean Ln (TSH) concentration
Description: as §1, §2, §3

Monodeiodinase type 1 = Monodeiodinase type 1 activity in liver and heart homogenates of infused rats; type: in vivo, rat; details: Liver, infused rats, adjusted group mean at the mean Ln (TSH) concentration
Description: as §1
(§4) Monodeiodinase type 1 and 2 activities. Monodeiodinase type 1 and type 2 activities were determined in tissue homogenates by measuring the release of radioiodide from [^125I]rT3 according to the method of Leonard and Rosenberg (Leonard, J. L. et al. Endocrinology (1980) 106: 444-451).
(§5) Monodeiodinase type 1 activity was measured in liver homogenates using 1 μM rT3 and 1 mM DTT with 10 min of incubation, whereas for heart, 0.01 μM rT3 and 10 mM DTT with 1 hour of incubation. Monodeiodinase type 2 activity was measured in brown adipose tissue (BAT) and cerebral cortex using 1 nM rT3, 10 mM DTT and 1 mM propylthiouracil (PTU) with 1 hour of incubation. Protein concentrations were measured by the method of Bradford (Bio-Rad Laboratories GmbH, Munich, Germany) with bovine gammaglobulin as the protein standard. In order to study the effect of circulating Tetrac on the enzyme activities, 2 rats were injected intraperitoneally with 10 μCi ^125I Tetrac and killed 6 hours later. The tissue homogenates were extracted with 3 volumes of ethanol-NH3 (97:3). After 10 minutes centrifugation at 15,000 g, the supernatant was vacuum dried and applied to TLC (Merck 254, Toluol, acetic acid, water: 2:2:1). In order to calculate the tissue concentrations, the highest serum Tetrac levels were used (406 pmol/ml). The calculated tissue concentrations were: liver: 1.9, heart: 2.29 and brain cortex: 0.47 fluol Tetrac/μg protein.

hypothyroid rats = experiment: Heart weight and heart/body weight in hypothyroid rats infused with Tetrac or T4; type: in vivo, rat; details: hypothyroid rats, mean ± SEM; for Heart: continuous minipump infusion
Description: as §1

[1] = Serum T3, T4, Triac and Tetrac levels in infused rats; type: in vivo; details: male, SIVZ, rat, intraperitoneal, mean ± SEM, read-out: Serum T4
Description: as §1
Hornone assays. Total serum T4, T3, Tetrac, Triac and TSH levels (intra-assay coefficient of variation 7 to 10%, inter-assay coefficient of variation 12 to 15%) were measured using the method of Burger, A., Sakoloff, C., Staeheli, V., Vallotton, M. D., and Ingbar, S. H. Acta. Endocrinol. (Copenh.) 80: 58-69 (1975). Serum TSH measurements were performed with reagents kindly provided by the National Pituitary Program, NIAMDD, NIH (Bethesda, USA). The detection limits were 0.80 ng TSH/ml; 9.5 pmol T4/ml; 0.16 pmol T3/ml; 10 pmol Tetrac/ml and 0.52 pmol Triac/ml.

[2] = system: monodeiodinase type 1 mRNA; experiment: Northern blot, hepatic monodeiodinase type 1 mRNA; type: in vivo, rat; details: Liver, infused rats, adjusted group mean at the mean Ln (TSH) concentration
Description: as §1, §2, §3

Monodeiodinase type 2 = Monodeiodinase type 2 activity in brain cortex and brown adipose tissue of infused rats; type: in vivo, rat; details: for Residual monodeiodinase type 2 activity, adjusted mean: infused rats, remaining activity, adjusted group mean at the mean Ln (TSH) concentration
Description: as §1, §4, §5

β-MHC mRNA = experiment: Northern blot, β-MHC mRNA in heart; type: in vivo, rat; details: infused rats, adjusted group mean at the mean Ln (TSH) concentration
Description: as §1, §2, §3

TSH = experiment: Serum TSH in hypothyroid rats infused with Tetrac or T4; type: in vivo, rat; details: for Serum TSH: hypothyroid rats, mean ± SEM
Description: Seventy-nine male SIVZ rats were purchased from the breeder (Institut für Labortierkunde des Universität Zürich, Zürich, Switzerland). […] The infusion lasted 13 days. […] An euthyroid control group was included. The animals were weighed every 2 days. Rats were sacrificed by decapitation and blood was collected and stored at […] until use. Tissues (liver, heart, brown adipose tissue, cerebral cortex and pituitary) were removed rapidly, frozen in liquid nitrogen and stored at […] until use.
Hornone assays. […] Endocrinol. […] Serum TSH measurements were performed with reagents kindly provided by the National Pituitary Program, NIAMDD, NIH (Bethesda, USA).

[3] = Female, treatment period (3 weeks, 75 μg/kg/day i.m.)
[4] = Female, washout period (3 weeks)
[5] = Male, treatment period (3 weeks, 75 μg/kg/day i.m.)
[6] = infusion 13.5 nmol/day/100 g BW

## O=C(O)Cc1cc(I)c(Oc2cc(I)c(O)c(I)c2)c(I)c1 [Tetrac from Henning Laboratory, 3,3′,5,5′-tetraiodothyroacetic acid]
Cynomologus monkeys; Female, treatment period
  Body weight gain (%): g (+9%)
  Food consumption 75%: days of observation/number of days in period: 75%: 13/21
  Food consumption 100%: days of observation/number of days in period: 100%: 8/21
  Food consumption (in words): slightly lower food consumption
Cynomologus monkeys; [3]
  Body weight gain: +300 g
Cynomologus monkeys; Female, washout period
  Body weight gain (%): g (+3%)
  Food consumption 75%: days of observation/number of days in period: 75%: 3/21
  Food consumption 100%: days of observation/number of days in period: 100%: 18/21
Cynomologus monkeys; [4]
  Body weight gain: +100 g
Cynomologus monkeys; Male, treatment period
  Body weight gain (%): g (+3%)
  Food consumption 100%: days of observation/number of days in period: 100%: 21/21
Cynomologus monkeys; [5]
  Body weight gain: +200 g
Cynomologus monkeys; Male, washout period
  Food consumption 100%: days of observation/number of days in period: 100%: 21/21
Cynomologus monkeys; Male, washout period (3 weeks)
  Body weight gain: 0 g

## O=C(O)Cc1cc(I)c(Oc2cc(I)c(O)c(I)c2)c(I)c1 [Tetrac from Rhône-Poulenc, 3,3′,5,5′-tetraiodothyroacetic acid]
Cynomologus monkeys; Female, treatment period
  Body weight gain (%): g (+8%)
  Food consumption 75%: days of observation/number of days in period: 75%: 7/21
  Food consumption 100%: days of observation/number of days in period: 100%: 14/21
Cynomologus monkeys; [3]
  Body weight gain: +300 g
Cynomologus monkeys; Female, washout period
  Food consumption 75%: days of observation/number of days in period: 75%: 5/21
  Food consumption 100%: days of observation/number of days in period: 100%: 16/21
Cynomologus monkeys; [4]
  Body weight gain: 0 g
Cynomologus monkeys; Male, treatment period
  Body weight gain (%): g (+2%)
  Food consumption 75%: days of observation/number of days in period: 75%: 1/21
  Food consumption 100%: days of observation/number of days in period: 100%: 20/21
Cynomologus monkeys; [5]
  Body weight gain: +100 g
Cynomologus monkeys; Male, washout period
  Body weight gain (%): g (+2%)
  Food consumption 100%: days of observation/number of days in period: 100%: 21/21
Cynomologus monkeys; Male, washout period (3 weeks)
  Body weight gain: +100 g

## N[C@@H](Cc1cc(I)c(Oc2cc(I)c(O)c(I)c2)c(I)c1)C(=O)O [T4, L-thyroxine, reference compound]
α-MHC mRNA
  α-MHC mRNA, T4/Tetrac (activity of T4 in % of Tetrac): 21%
α-MHC mRNA; infused rats, adjusted group mean at the mean Ln (TSH) concentration
  α-MHC mRNA, adjusted mean: 1.13 arbitrary units
GH mRNA
  GH mRNA, adjusted mean: 28644 arbitrary units
Monodeiodinase type 1
  Residual Monodeiodinase type 1 activity, adjusted mean: 180
Hypothyroid rats; 0.5 nmol/day/100 g BW
  Heart: 0.86 ± 0.06 g
Hypothyroid rats; 1.5 nmol/day/100 g BW
  Heart: 0.90 ± 0.04 g
Hypothyroid rats; 4.5 nmol/day/100 g BW
  Heart: 1.19 ± 0.03 g
Hypothyroid rats; 13.5 nmol/day/100 g BW
  Heart: 1.32 ± 0.11 g
Hypothyroid rats; infusion 0.5 nmol/day/100 g BW
  Heart/BW (%): 0.35 ± 0.02%
Hypothyroid rats; infusion 1.5 nmol/day/100 g BW
  Heart/BW (%): 0.34 ± 0.01%
Hypothyroid rats; infusion 4.5 nmol/day/100 g BW
  Heart/BW (%): 0.45 ± 0.02%
Hypothyroid rats; [6]
  Heart/BW (%): 0.54 ± 0.02%
[1]; T4 infusion 0.5 nmol/day/100 g BW
  concentration at 13 days: 43.1 ± 2.8 nM
[1]; T4 infusion 1.5 nmol/day/100 g BW
  concentration at 13 days: 77.1 ± 9.4 nM
[1]; T4 infusion 4.5 nmol/day/100 g BW
  concentration at 13 days: 130 ± 9.5 nM
[1]; T4 infusion 13.5 nmol/day/100 g BW
  concentration at 13 days: 353 ± 31.7 nM
[2]
  Residual Monodeiodinase type 1 mRNA, adjusted mean: 5.1 arbitrary units
Monodeiodinase type 2; BAT
  Residual monodeiodinase type 2 activity, T4/Tetrac (activity of T4 in % of Tetrac): 42%
  Residual monodeiodinase type 2 activity, adjusted mean: 11.8
Monodeiodinase type 2; Brain Cortex
  Residual monodeiodinase type 2 activity, T4/Tetrac (activity of T4 in % of Tetrac): 18%
  Residual monodeiodinase type 2 activity, adjusted mean: 5.02
β-MHC mRNA
  β-MHC mRNA, adjusted mean: 495 arbitrary units
TSH; infusion 0.5 nmol/day/100 g BW
  Serum TSH: 110.2 ± 10.8 ng/mL
TSH; infusion 1.5 nmol/day/100 g BW
  Serum TSH: 11.8 ± 3.0 ng/mL
TSH; infusion 4.5 nmol/day/100 g BW
  Serum TSH: 1.0 ± 0.2 ng/mL
TSH; [6]
  Serum TSH: <0.8 ng/mL
TSH; mean over all dose levels of the treated rats, p=<0.04
  Serum TSH concentration, mean of treatment group: 31 ng/mL
